Consider 18 compounds from patent US9388124B2, “Ingenol-3-acylates I” (LEO LABORATORIES LIMITED, priority 2010, dated 2016).

Like-named read-outs stand apart in the source and are kept apart here. Bounds are passed on as bounds.

Holding throughout (type): cell-based
Test [1] has as its system PMN's (polymorphonuclear leukocytes). The test can be described thus: Neutrophil oxidative burst assay. The conditions noted are these: Leukocyte, 40 min, read-out: Neutrophil oxidative burst Rel EC50 range. The procedure:
Neutrophil Oxidative Burst Assay:
PMN's (polymorphonuclear leukocytes) were isolated and purified from fresh buffy coats by sequential sedimentation, density centrifugation and lysis of contaminating erythrocytes. Buffy coats were incubated with 2% methocel for 30-45 min to differentially sediment red blood cells. The leukocyte-rich supernatant was transferred to lymphoprep tubes to remove mononuclear cells by density centrifugation (400×g, 30 min). The pellet was resuspended and any remaining erythrocytes lysed using 0.2% NaCl for 30 sec before restoring isotonicity by the addition of 1.2% NaCl. This step was repeated until the cell pellet appears relatively free of red blood cells. Cells were resuspended in DPBS (Dulbecco's Phosphate Buffered Saline) (w.o. Ca^2+, Mg^2+) and the concentration adjusted to 1.4×10^6 cells/ml in HBSS (Hanks Balanced Salt solution) (w Ca^2+, Mg^2+) containing 0.1% BSA (Bovine Serum Albumin) and 5 mM glucose just prior to assay initiation. Titrated reference and test compounds were pre-mixed with HE (Hydroethidine) (10 μM final assay concentration) before addition to 96-well plates containing 2.5×10^5 cells. Following 40 min incubation at RT, changes in the respiratory burst was estimated by measuring fluorescence at 579 nm (excitation: 485 nm) using an Envision plate reader.
Test compound titration curves were fitted to a four-parameter sigmoidal curve after normalizing the effect of the test compound to the effect of the positive control (5×10^−7 M PEP0005). Rel EC50 denotes the concentration of test compound producing an effect that is midway between the fitted top and bottom. Abs EC50 is the concentration of test compound that provokes a response corresponding to 50% of the maximal effect associated with the positive control (5×10^−7 M PEP0005).

The test system of test [2] is Primary human epidermal keratinocytes, HeKa. The test can be described thus: HeKa cytokine release (IL-8) assay. As to the method:
HeKa Cytokine Release (IL-8) Assay:
Primary human epidermal keratinocytes, HeKa, were seeded (10.000 cells/well) in 96-well plates the day before the assay. Test compounds were diluted in DMSO (dimethyl sulfoxide) and further diluted in assay medium and pipetted into wells of 96 well-plates containing HeKa cells. The plates were incubated for 6 h at 37° C. in humidified air with 5% CO2. Plates were centrifuged briefly to spin down cells at 4° C., the supernatant was removed and analysed by Meso Scale Discovery (MSD) 4-spot cytokine assay (Pro-inflammatory II Ultra Sensitive kit, MSD, MD, USA). The MSD assay employs a sandwich immunoassay format where capture antibodies are coated in a patterned array on the bottom of the wells of a 4-Spot-Multi-MSD plate. Standard samples were incubated in the MULTI-SPOT plates as well, and the cytokine (IL-8) binds to its corresponding capture antibody spot. The cytokine level was quantitated on a SECTOR™ Imager using a cytokine-specific Detection Antibody labelled with MSD SULFO-TAG™ reagent.
Test compound titration curves were fitted to a four-parameter sigmoidal curve after normalizing the effect of the test compound to the effect of the positive control (1.5×10^−7 M PEP0005). Rel EC50 denotes the concentration of test compound producing an effect that is midway between the fitted top and bottom.

A further test concerns HeLa cells. The test is described as follows: Necrosis assay. The note with it: Homo sapiens, 0.5 h, read-out: HeLa Necrosis EC50 range. The procedure: HeLa cells (ATCC CCL-002) were grown in minimal essential medium (Invitrogen catalog no. 42360) containing 10% fetal bovine serum, 100 IU/ml penicillin and 100 μg/ml streptomycin. 4,000-6,000 cells were seeded into 96-well black ViewPlates-plates, clear bottom, (Perkin Elmer) in 100 μl medium and incubated overnight. Compounds were dissolved and pre-diluted in DMSO in 96-well polypropylene plates (Greiner) in a concentration range of 15 μM to 600 μM. At the time of the experiment cell plates were placed on heating blocks at 37° C., medium was removed and 40 μl fresh, pre-warmed medium was added per well. Cells were incubated for 15 min before addition of compounds. In parallel, 3 μl of compounds were diluted with 197 μl growth medium on a Tecan freedom-EVO pipetting station using 250 μl/s pipetting speed, in order to ensure effective mixing of the highly concentrated compound solutions with the aqueous phase. These pre-dilution plates were then equilibrated on heating blocks at 37° C. for 10 min. 80 μl pre-diluted compound were transferred manually to the corresponding wells containing HeLa cells yielding compound concentrations of 10 μM to 400 μM. Control conditions were 1% DMSO in growth medium (100% viability) and 400 μM ingenol mebutate in growth medium (0% viability). Plates were incubated on the heating blocks at 37° C. for 30 min. At the end of the incubation 10 μl PrestoBlue reagent (Invitrogen) were added to each well, plates were sealed with black seal, followed by incubation at 37° C. for 10 min with gentle shaking (150 rpm). Subsequently, plates were placed at room temperature for 20-30 min. Plates were read immediately after on an Envision Fluorescence reader (Perkin Elmer) with excitation at 535 nm and emission at 630 nm. Test compound titration curves were fitted to a four-parameter sigmoidal curve after normalizing the effect of the test compound to the effect of the positive control (4 10^−4 M PEP0005/ingenol mebutate). AbsEC50 denotes the concentration of test compound producing 50% effect.

Setting [3] is: HEKa, 6 h, read-out: HeKa cytokine release (IL-8) Rel EC50 range.
Setting [4] is: PMNs, 40 min at RT, hydroethidine fluorescence, normalized to 5×10^−7 M PEP0005.
[5] abbreviates: HeKa cells, 6 h at 37° C., MSD IL-8, normalized to 1.5×10^−7 M PEP0005, read-out: HeKa cytokine release (IL-8) Rel EC50 range.
The mark [6] stands for this setting: HeLa cells, 30 min at 37° C., PrestoBlue, AbsEC50, normalized to 4 10^−4 M PEP0005/ingenol mebutate.

Consider `C=C(C)C(=O)O[C@H]1C(C)=C[C@]23C(=O)[C@@H](C=C(CO)[C@@H](O)[C@]12O)[C@H]1[C@@H](C[C@H]3C)C1(C)C` [Compound 101, Ingenol 3-(2-methyl-acrylate)], for which the EC50 in test [1] is below 20 nM; in test [2] (setting [3]), above 100 nM; with HeLa cells (HeLa) it was 150000 to 350000 nM.

Consider `CC(C)=CC(=O)O[C@H]1C(C)=C[C@]23C(=O)[C@@H](C=C(CO)[C@@H](O)[C@]12O)[C@H]1[C@@H](C[C@H]3C)C1(C)C` [Compound 102, Ingenol 3-(3-methyl-butenoate)], for which the figures for the EC50 (in test [1]; in test [2] (setting [3]); with HeLa cells (HeLa)) were below 20 nM, 20 to 100 nM and 150000 to 350000 nM, respectively.

For `CC1=C[C@]23C(=O)[C@@H](C=C(CO)[C@@H](O)[C@]2(O)[C@H]1OC(=O)C(C)=C(C)C)[C@H]1[C@@H](C[C@H]3C)C1(C)C` [Compound 103, Ingenol 3-(2,3-dimethyl-butenoate)], the EC50 in test [1] was below 20 nM; in test [2] (setting [3]), below 20 nM; with HeLa cells (HeLa) it was 150000 to 350000 nM.

As to `C=C(CC)C(=O)O[C@H]1C(C)=C[C@]23C(=O)[C@@H](C=C(CO)[C@@H](O)[C@]12O)[C@H]1[C@@H](C[C@H]3C)C1(C)C` [Compound 104, Ingenol 3-(2-methylene-butyrate)], the EC50 in test [1] is below 20 nM; in test [2] (setting [3]), 20 to 100 nM; in the test on HeLa cells (HeLa), 150000 to 350000 nM.

For `CC1=C[C@]23C(=O)[C@@H](C=C(CO)[C@@H](O)[C@]2(O)[C@H]1OC(=O)C(C)C)[C@H]1[C@@H](C[C@H]3C)C1(C)C` [Compound 105, Ingenol 3-(2-methyl-propanoate)], the EC50 is below 20 nM in test [1] and 20 to 100 nM in test [2] (setting [3]).

In the case of `CC1=C[C@]23C(=O)[C@@H](C=C(CO)[C@@H](O)[C@]2(O)[C@H]1OC(=O)CC(C)C)[C@H]1[C@@H](C[C@H]3C)C1(C)C` [Compound 106, Ingenol 3-(3-methyl-butanoate)], the figures for the EC50 in test [1] and in test [2] (setting [3]) were below 20 nM and 20 to 100 nM, respectively.

Regarding `CCC(C)C(=O)O[C@H]1C(C)=C[C@]23C(=O)[C@@H](C=C(CO)[C@@H](O)[C@]12O)[C@H]1[C@@H](C[C@H]3C)C1(C)C` (stereo partly shown) [Compound 107a and Compound 107b, Ingenol 3-(RS-2-methyl-butanoate)], the EC50 in test [1] is below 20 nM; in test [2] (setting [3]) it was 20 to 100 nM.

Regarding `CC1=C[C@]23C(=O)[C@@H](C=C(CO)[C@@H](O)[C@]2(O)[C@H]1OC(=O)CC(C)(C)C)[C@H]1[C@@H](C[C@H]3C)C1(C)C` [Compound 108, Ingenol 3-(3,3-dimethyl-butanoate)], the EC50 in test [1] was below 20 nM; in test [2] (setting [3]), 20 to 100 nM; with HeLa cells (HeLa) it was 150000 to 350000 nM.

Turning to `CCC(CC)C(=O)O[C@H]1C(C)=C[C@]23C(=O)[C@@H](C=C(CO)[C@@H](O)[C@]12O)[C@H]1[C@@H](C[C@H]3C)C1(C)C` [Compound 109, Ingenol 3-(2-ethyl-butanoate)], the EC50 in test [1] is below 20 nM; in test [2] (setting [3]), below 20 nM; in the test with HeLa cells (HeLa) it was 150000 to 350000 nM.

On to `CC[C@@H](C)C(=O)O[C@H]1C(C)=C[C@]23C(=O)[C@@H](C=C(CO)[C@@H](O)[C@]12O)[C@H]1[C@@H](C[C@H]3C)C1(C)C` [Compound 110, Ingenol 3-(2R-methyl-butanoate)], for which the EC50 was below 20 nM in test [1] and 20 to 100 nM in test [2] (setting [3]).

As to `C/C=C(\C)C(=O)O[C@H]1C(C)=C[C@]23C(=O)[C@@H](C=C(CO)[C@@H](O)[C@]12O)[C@H]1[C@@H](C[C@H]3C)C1(C)C` [Compound 111, Ingenol 3-tiglate], the EC50 was below 20 nM in test [1] (setting [4]), 20 to 100 nM in test [2] (setting [5]) and below 350000 nM in the test on HeLa cells (setting [6]).

For `CC1=C[C@]23C(=O)[C@@H](C=C(CO)[C@@H](O)[C@]2(O)[C@H]1OC(=O)Cc1ccccc1)[C@H]1[C@@H](C[C@H]3C)C1(C)C` [Compound 112, Ingenol 3-(phenyl-acetate)], the EC50 in test [1] (setting [4]) was below 20 nM; in test [2] (setting [5]), above 100 nM; with HeLa cells (setting [6]), 150000 to 350000 nM.

Take `COC(=O)/C=C/C(=O)O[C@H]1C(C)=C[C@]23C(=O)[C@@H](C=C(CO)[C@@H](O)[C@]12O)[C@H]1[C@@H](C[C@H]3C)C1(C)C` [Compound 113, Ingenol 3-(2Z-(methoxycarbonyl))-acrylate]: the concentration for a half-maximal effect (EC50) in test [1] was above 100 nM.

Take `CC1=C[C@]23C(=O)[C@@H](C=C(CO)[C@@H](O)[C@]2(O)[C@H]1OC(=O)C(C)C1CCCCC1)[C@H]1[C@@H](C[C@H]3C)C1(C)C` (stereo partly shown) [Compound 114, Ingenol 3-(2-cyclohexylpropanoate)]: the EC50 in test [1] is below 20 nM; in test [2] (setting [3]), below 20 nM; in the test on HeLa cells (HeLa), 150000 to 350000 nM.

Turning to `CO/N=C(\C(=O)O[C@H]1C(C)=C[C@]23C(=O)[C@@H](C=C(CO)[C@@H](O)[C@]12O)[C@H]1[C@@H](C[C@H]3C)C1(C)C)c1ccccc1` [Compound 115, Ingenol 3-((2Z)-2-methoxyimino-2-phenyl-acetate)], the EC50 in test [1] is 20 to 100 nM; in test [2] (setting [3]), below 20 nM; in the test on HeLa cells (HeLa), below 150000 nM.

In the case of `CO/N=C(/C(=O)O[C@H]1C(C)=C[C@]23C(=O)[C@@H](C=C(CO)[C@@H](O)[C@]12O)[C@H]1[C@@H](C[C@H]3C)C1(C)C)c1ccccc1` [Compound 116, Ingenol 3-((2E)-2-methoxyimino-2-phenyl-acetate)], the EC50 in test [1] and in test [2] (setting [3]) was 20 to 100 nM in each case.

As for `CC1=C[C@]23C(=O)[C@@H](C=C(CO)[C@@H](O)[C@]2(O)[C@H]1OC(=O)/C(C)=C\c1ccc(C)cc1)[C@H]1[C@@H](C[C@H]3C)C1(C)C` [Compound 117, Ingenol 3-((Z)-2-methyl-3-(p-tolyl)prop-2-enoate)], the EC50 in test [1] is below 20 nM; in test [2] (setting [3]) it was below 20 nM; with HeLa cells (HeLa) it was below 150000 nM.

For `CC1=C[C@]23C(=O)[C@@H](C=C(CO)[C@@H](O)[C@]2(O)[C@H]1OC(=O)C(C#N)=C1CCCCC1)[C@H]1[C@@H](C[C@H]3C)C1(C)C` [Compound 120, Ingenol 3-(2-cyano-2-cyclohexylidene-acetate)], the EC50 in test [1] is below 20 nM; in test [2] (setting [3]) it was above 100 nM.
